The subject of test [1] is COV362 cells. Description: Cell migration assay (Ibidi culture inserts), COV362. It counts as cell-based, human. Particulars: 100 μM, 24 and 48 h. As for the experimental part: Cell migration assay was performed using Ibidi® three-well culture inserts. The inserts were placed in six-well plates. In total, 70 µL of cell suspension was seeded in the inserts and allowed to adhere and grow for 24 h. When the cells formed a confluent monolayer, the inserts were carefully removed and the cells were washed two times with DPBS. Cells were treated with 100 μM (final concentration) of compounds 8, 9, cisplatin, and carboplatin in 2 ml of growth medium. Cells treated with a medium containing the same volume of sterile water or DMSO were used as the controls. Images of cell gaps were taken with Axio Scope A1 Polarized Light Microscope (Zeiss) at the time of treatment, 24 and 48 h after, and analyzed using ImageJ software.

The subject of test [2] is HIO80 cells. Description: Cell proliferation assay (alamarBlue), control cell line HIO80. Format: cell-based, human. Particulars: 48 h incubation. On the procedure: (§1) The cell line COV362 (CVCL_2,420) was originally established from a high-grade ovarian serous adenocarcinoma from a metastatic site in the pleural effusion ([van den Berg-Bakker et al., 1993]) and was purchased from ECACC (ECACC 07071910) as p37 on 13 October 2017. The growth medium for COV362 cells was DMEM (D5546; Sigma–Aldrich GmbH), with 10% FBS (F9665; Sigma–Aldrich GmbH) and 2 mM L-glutamine (G7513; Sigma–Aldrich GmbH). COV362 cells in passages p37 + 12 to p37 + 17 were used in this study and seeded at a concentration of 3.5 cells/ml × 10^4 cells/ml for proliferation studies and at a concentration of 5.3 × 10^5/ml for migration studies. The cell line OVCAR-4 (CVCL_1,627) is a high-grade serous ovarian adenocarcinoma cell line established from a patient refractory to cisplatin ([Johnson et al., 1997]). The cell line was purchased from Merck on 19 March 2021. The growth medium for OVCAR-4 cells was RPMI-1640 (Sigma R5586) supplemented with 2 mM glutamine (G7513; Sigma–Aldrich GmbH), 10% FBS (F9665; Sigma–Aldrich GmbH), 0.25 μg/ml insulin (I9278; Sigma–Aldrich GmbH). OVCAR-4 cells in passages p+6 to p+15 were used in this study and seeded at a concentration of 6 cells/ml × 10^4 cells/ml. The control cell line HIO80 (CVCL_E274) was obtained from Andrew K. Godwin (University of Kansas Medical Center, Kansas, United States) on 20 October 2017 as p+72. It was originally established from ovarian surface epithelium ([Yang et al., 2004]). HIO80 cells were grown in RPMI medium (R5886, Sigma–Aldrich GmbH) supplemented with 10% FBS (F9665; Sigma–Aldrich GmbH), 2 mm L-glutamine (G7513; Sigma–Aldrich GmbH) and 6.6 µg/ml insulin (I9278; Sigma–Aldrich GmbH). HIO80 cells in passages p72 + 8 to p72 + 19 were used in this study and seeded at a concentration of 2 × 10^4 cells/mL. HIO80 in passage +10 was authenticated by short tandem repeats (STR) profiling performed by ATCC on 22 February 2019. Cells were grown in a humidified atmosphere containing 5% CO2 at 37°C. All cell lines were negative for mycoplasma infection which was periodically tested using MycoAlert^TM mycoplasma detection kit (Lonza, Basel, Switzerland).
(§2) The effect of ruthenium compounds on the proliferation of ovarian cancer cell lines COV362 and OVCAR-4 and the control cell line HIO80 was analyzed using the cell proliferation reagent alamarBlue HS (A50101; Thermo Fisher Scientific) following the manufacturer’s instructions.
(§3) Cells were seeded in 96-well plates in 100 µL of medium and allowed to adhere and grow for 24 h. […] Cisplatin and carboplatin purchased from Sigma–Aldrich GmbH (cat. number: PHR1624, lot: LRAB7778) and (cat. number: C2538, lot: MKCK1243) were dissolved in sterile water. Working solutions were prepared by a serial dilution of stock solutions with a culture medium. After the initial incubation, cells were treated with ruthenium complexes, cisplatin, and carboplatin. A range of final concentrations between 0.001 and 300 µM were used for ruthenium complexes and cisplatin, and between 0.001 µM and 1 mM for carboplatin. After 48 h of incubation, plates were incubated with 20 µL of alamarBlue. After 4 h absorbance was measured with a BioTek microplate spectrophotometer at 570 nm, with the reference wavelength set at 600 nm. First, the background value of a well containing the active substance without cells was subtracted, then the average values for duplicates/triplicates were calculated. The absorbance of the well containing only untreated cells was used as a normalization control. The half-maximal […] concentration (IC50) was determined for all ruthenium complexes with a growth-inhibiting effect on cells by constructing a dose-response curve (Graph Pad Prism, Version 8.0).

Test [3] deals with COV362 cells. As to the kind of experiment: Cell proliferation assay (alamarBlue), chemoresistant ovarian cancer cell line COV362. Format: cell-based, human. The following applies: for IC50: 48 h incubation. On the procedure:
as §1, §2, §3

For test [4], the system named is OVCAR-4 cells. As to the kind of experiment: Cell proliferation assay (alamarBlue), OVCAR-4. It counts as cell-based, human. The following applies: OVCAR-4; 48 h incubation. As for the experimental part: as §1, §2, §3
(The colour change of resazurin is a common sign of viable cells or microbes.)

The target of test [5] is T1, AKR1C2 (Homo sapiens, UniProt P52895).
T1 construct: made in house
T1 sequence (P52895 1-323): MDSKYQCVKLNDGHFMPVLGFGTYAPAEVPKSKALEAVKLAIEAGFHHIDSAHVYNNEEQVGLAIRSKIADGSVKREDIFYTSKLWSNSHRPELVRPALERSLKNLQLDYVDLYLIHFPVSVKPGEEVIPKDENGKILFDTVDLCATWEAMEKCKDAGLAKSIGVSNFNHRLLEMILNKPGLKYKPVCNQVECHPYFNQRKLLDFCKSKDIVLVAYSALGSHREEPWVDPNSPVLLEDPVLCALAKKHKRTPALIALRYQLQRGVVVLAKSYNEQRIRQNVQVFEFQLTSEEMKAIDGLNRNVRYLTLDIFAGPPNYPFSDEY
Also noted: method as in Bauman et al., 2005. Particulars: ref Bauman et al., 2005; cited from earlier work.

Test [6] addresses T2, AKR1C3 (Homo sapiens, UniProt P42330).
T2 construct: made in house
T2 sequence (P42330 1-323): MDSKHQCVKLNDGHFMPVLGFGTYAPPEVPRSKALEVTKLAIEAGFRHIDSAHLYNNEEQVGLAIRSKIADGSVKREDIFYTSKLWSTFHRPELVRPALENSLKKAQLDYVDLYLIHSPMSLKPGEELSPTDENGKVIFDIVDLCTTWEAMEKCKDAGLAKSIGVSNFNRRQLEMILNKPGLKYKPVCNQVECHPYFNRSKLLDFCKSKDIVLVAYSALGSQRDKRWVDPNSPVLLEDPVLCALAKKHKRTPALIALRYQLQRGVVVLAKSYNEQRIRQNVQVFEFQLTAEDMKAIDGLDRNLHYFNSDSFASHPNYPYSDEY
Description: Inhibition of recombinant AKR1C3, oxidation of 1-acenaphthenol, progress-curve analysis. Format: biochemical. Particulars: AKR1C3. On the procedure:
(§4) To investigate the effect of ten selected ruthenium compounds, we measured their effect on the time course of oxidation of the artificial substrate 1-acenaphtenol by recombinant enzymes AKR1C1–3. The recombinant enzymes AKR1C1–AKR1C3 were prepared as described previously ([Brozic et al., 2006]). Since the artificial substrate is racemic, the oxidation follows a double exponential pattern as described previously ([Traven et al., 2015]). The in vitro catalytic activity of AKR1C1–3 enzymes was determined spectrophotometrically by monitoring the increase in NADH absorbance at 340 nm (ε(λ340) = 6220 M^−1cm^−1) in the presence of the substrate 1-acenaphthenol. Enzymatic reactions (300 µL) were performed in 100 mm potassium phosphate buffer (pH 9.0), 0.005% (v/v) TritonX-114, 5% (v/v) DMSO, containing 2.3 mm NAD^+ and 1-acenaphthenol at final concentrations of 90, 180, and 250 µM for AKR1C1, AKR1C2, and AKR1C3, respectively. A total of 5 µL of a tested compound in DMSO was added to the reaction mixture. The final concentrations of the tested compounds ranged from 1 to 200 μM, depending on the extent of inhibition (Supplementary Data). The reaction was started by adding 15 µL of AKR1C1, AKR1C2, or AKR1C3 dissolved in 1x PBS (pH 7.3) at final concentrations of 0.11, 0.16, and 1.5 µM, respectively. AKR1C1–3 activity was measured at 37°C for 3 h without shaking using a PowerWave XS microplate reader (Biotek; Winooski, VT, United States). Measurements at seven different concentrations were performed in duplicates or triplicates (Supplementary Figures S2). To mechanistically explain all the obtained progress curves for each ruthenium complex on each enzyme by a common reaction scheme, we extended the originally proposed scheme so that the interaction of the ruthenium complex with apo- and holoenzyme was allowed to be rapid and followed by a slow irreversible association of a second ruthenium complex molecule. However, the affinity of the Ru complexes for the apoenzymes was much lower so this part was excluded from the proposed kinetic model for clarity (Figure 4).
(§5) FIGURE 4 Reaction scheme for the oxidation of 1-acenaphtenol by AKR1C1-3 and its inhibition by ruthenium compounds. E represents apoenzyme, E-NAD and E-NADH represent holoenzyme with bound NAD^+ and NADH, respectively. A and B are enantiomers of substrate 1-acenaphtenol. Symbols which include I (ruthenium compound) represent holoenzyme in complex with one or two inhibitor molecules. KNAD, KNADH, and K2-3 are equilibrium constants and k+2–3 are second-order association rate constants for the binding of the second inhibitor molecule to the enzyme. The progress curves for each enzyme in the presence of ruthenium complexes were analyzed by the WEB server ENZO (https://enzo.cmm.ki.si/) designed exactly for such purposes ([Bevc et al., 2011]).

In test [7] the target is T1, AKR1C2. Description: Inhibition of recombinant AKR1C2, oxidation of 1-acenaphthenol, progress-curve analysis. It counts as biochemical. Particulars: AKR1C2. As for the experimental part: as §4, §5
Test [8] addresses T3, AKR1C1 (Homo sapiens, UniProt Q04828).
T3 construct: made in house
T3 sequence (Q04828 1-323): T1 sequence (P52895 1-323) with V38T, H47R, V54L, S87C, M151V, H170R, L172Q
Description: Inhibition of recombinant AKR1C1, oxidation of 1-acenaphthenol, progress-curve analysis. It counts as biochemical. On the procedure:
as §4, §5

Test [9] has as its system MCF-7. Particulars: ref Kljun et al., 2016; cited from earlier work.
Test [10] deals with T2, AKR1C3. Also noted: method as in Qiu et al., 2007. The following applies: ref Qiu et al., 2007; cited from earlier work.
The target in test [11] is T2, AKR1C3. Further details: method as in Traven et al., 2015. The following applies: ref Traven et al., 2015; cited from earlier work.
[12] abbreviates: irreversible binding of second inhibitor molecule to E-NAD-I.
The mark [13] stands for this setting: reversible binding to holoenzyme E-NAD, read-out: K2.

Changes are numbered by the printed parent chain. Read-outs that look alike come from different tables or passages of the source.

One may read the IC50 as the concentration that inhibits the measured activity by half. Read a low IC50 as greater potency in that assay. Take `N.N.O=C([O-])C1(C(=O)[O-])CCC1.[Pt+2]` [Carboplatin, reference compound]: the “effect on cell migration (in words)” value in test [1] is listed as “Significant cell migration was observed”. Moreover, the IC50 in [2] was determined as 131 µM; in test [3], 272 µM; in test [4], 73 µM.
Regarding `C[C@H](CCC(=O)O)[C@H]1CC[C@H]2[C@@H]3CC[C@@H]4CC(=O)CC[C@]4(C)[C@H]3CC[C@]12C` [5β-cholanic acid-3-one], the Ki in test [5] is 21 nM.
`O=[N+]([O-])c1ccc(O)c2ncccc12` [Nitroxoline, reference compound]: in test [3], the “fold lower IC50 compared to Ru-chlorido complex 9” value was 4 fold. The IC50 in test [3] (Homo sapiens) is 6.6 µM.
Regarding `Oc1c(I)cc(Cl)c2cccnc12` [Clioquinol, reference compound], the “fold lower IC50 value compared to Ru-pta complex 8” value in test [3] was found to be 1.9 fold. In [3] (Homo sapiens), this compound had an IC50 of 20.1 µM.
On to `CN(C)c1ccc(C(=O)C=C([O][Ru+][PH]23CN4CN(CN(C4)C2)C3)C(F)(F)F)cc1.Cc1ccc(C(C)C)cc1.F[P-](F)(F)(F)(F)F` [Compound 4, (η^6-p-cymene)(4,4,4-trifluoro-1-(4-(dimethylamino)phenyl)-1,3-butandionato)(pta)ruthenium(II) hexafluorophosphate], for which the figures for the “k+2” value in test [6] (setting [12]), in [7] (setting [12]) and in test [8] (setting [12]) were 1.8 M⁻¹ s⁻¹, 1.9 M⁻¹ s⁻¹ and 1.4 M⁻¹ s⁻¹, respectively. Besides, the Ki in test [6] (setting [13]) worked out at 441 µM; in [7] (setting [13]) it was 340 µM; in test [8] (setting [13]) it was 86.9 µM.
In turn, `Cc1ccc(C(C)C)cc1.[Cl][Ru]([Cl])[PH]12CN3CN(CN(C3)C1)C2` [RAPTA-C, reference compound] displayed an IC50 in [3] greater than 300 µM.
Take `[O-][n+]1ccccc1S` [pyrithione]: the “IC50 values (in words)” value in [9] is given as “low µM”.
Regarding `CC1(C)CC[C@@]2(CC[C@H]3[C@@H]4CCc5cc(C(N)=O)ccc5[C@H]4CC[C@@]32C)OC1=O` [EM1404], the Ki in [10] is 6.9 nM.
`Cc1ccc(C(C)C)cc1.Cc1ccc(C(C)C)cc1.[Cl][Ru][Cl].[Cl][Ru][Cl]` [Compound P1, [(η^6-p-cymene)RuCl(μ-Cl)]2]: the “Ki values (in words)” value in test [11] was “nM Ki values”.
Regarding `N.N.[Cl][Pt][Cl]` [Cisplatin, reference compound], the values for the IC50 in test [2], in test [3] and in test [4] were 6.96 µM, 13.6 µM and 4.16 µM, respectively.

Values taken from article PMC9403717, “Ruthenium complexes show potent inhibition of AKR1C1, AKR1C2, and AKR1C3 enzymes and anti-proliferative action against chemoresistant ovarian cancer cell line” (Frontiers in Pharmacology, 2022).
